Legend:
[1] = tested on: breast cancer; settings: after anthracycline-based chemotherapy; cited from earlier work
[2] = dose level 6, epirubicin plus docetaxel every 3 weeks (Schedule A) with pegfilgrastim support

Compound | breast cancer patients that respond [1] | maximum tolerated dose [2]
CC(=O)O[C@@]12CO[C@@H]1C[C@H](O)[C@@]1(C)C(=O)[C@H](O)C3=C(C)[C@@H](OC(=O)[C@H](O)[C@@H](NC(=O)OC(C)(C)C)c4ccccc4)C[C@@](O)([C@@H](OC(=O)c4ccccc4)[C@H]21)C3(C)C [docetaxel] | 35.4% | 75 mg/m^2
COc1cccc2c1C(=O)c1c(O)c3c(c(O)c1C2=O)C[C@@](O)(C(=O)CO)C[C@@H]3O[C@H]1C[C@H](N)[C@@H](O)[C@H](C)O1 [epirubicin] | – | 105 mg/m^2
CC(=O)O[C@H]1C(=O)[C@@]2(C)[C@H]([C@H](OC(=O)c3ccccc3)[C@]3(O)C[C@H](OC(=O)[C@H](O)[C@@H](NC(=O)c4ccccc4)c4ccccc4)C(C)=C1C3(C)C)[C@]1(OC(C)=O)CO[C@@H]1C[C@@H]2O [paclitaxel] | 33% | –

Source: US20100317001A1, “METHOD OF USING TUMOUR RNA INTEGRITY TO MEASURE RESPONSE TO CHEMOTHERAPY IN CANCER PATIENTS” (LAURENTIAN UNIVERSITY, priority 2007, published 2010)
